A word on the IC50: it is the concentration that gives 50% inhibition. The term logD denotes lipophilicity at a set pH, counting ionised and neutral species. Higher therefore signals a more lipophilic compound. As usually defined, the bioavailability is the share of a dose that reaches the circulation, judged against a reference dose that is usually intravenous. Read a low bioavailability as little systemic uptake. In general, efflux ratio refers to the permeability from basolateral to apical divided by that in the opposite direction, in the common usage. A word on the fraction unbound: it is free concentration divided by total concentration.

In data set [1] the target is BDNF/NT-3 growth factors receptor (Homo sapiens, UniProt Q16620). The experiment in a line: Inhibition of TRKB (unknown origin) in presence of 25 uM ATP.
Sequence of BDNF/NT-3 growth factors receptor (Q16620 whole entry): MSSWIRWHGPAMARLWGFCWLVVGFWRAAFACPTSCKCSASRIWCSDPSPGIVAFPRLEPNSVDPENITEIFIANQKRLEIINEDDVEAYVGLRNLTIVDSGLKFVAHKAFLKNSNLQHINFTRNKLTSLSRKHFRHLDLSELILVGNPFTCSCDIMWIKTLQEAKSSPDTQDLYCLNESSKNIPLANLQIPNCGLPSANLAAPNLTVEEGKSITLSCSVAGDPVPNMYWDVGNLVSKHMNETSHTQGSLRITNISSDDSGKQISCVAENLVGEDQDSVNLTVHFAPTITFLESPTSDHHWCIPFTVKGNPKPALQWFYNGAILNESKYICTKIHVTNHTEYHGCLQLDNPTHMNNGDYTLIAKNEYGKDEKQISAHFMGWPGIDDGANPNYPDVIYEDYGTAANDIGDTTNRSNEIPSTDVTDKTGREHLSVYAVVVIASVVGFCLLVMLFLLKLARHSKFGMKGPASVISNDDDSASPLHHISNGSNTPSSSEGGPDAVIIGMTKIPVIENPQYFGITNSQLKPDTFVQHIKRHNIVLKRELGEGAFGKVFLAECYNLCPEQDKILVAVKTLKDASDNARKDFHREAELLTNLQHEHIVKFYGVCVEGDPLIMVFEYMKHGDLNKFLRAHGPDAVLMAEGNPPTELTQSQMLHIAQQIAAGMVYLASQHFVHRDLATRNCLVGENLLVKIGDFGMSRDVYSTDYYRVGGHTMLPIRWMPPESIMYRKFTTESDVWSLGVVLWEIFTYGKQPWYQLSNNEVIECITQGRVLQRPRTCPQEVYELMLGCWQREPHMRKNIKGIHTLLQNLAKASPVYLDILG
In data set [2] the test system is OCI-Ly10. The experiment in a line: Growth inhibition of human OCILY10 cells at 3.3 uM incubated for 3 days (Rvb= -3%). Format: functional. Particulars: OCI-Ly10, 72 h, time 3 day, read-out: GI.
A short description of data set [3]: Lipophilicity, LogD at pH 7.4 of the compound by shake flask method. Format: physicochemical. Particulars: buffer.
In data set [4] the target is Interleukin-1 receptor-associated kinase 1 (Homo sapiens, UniProt P51617). The experiment in a line: Inhibition of IRAK1 (unknown origin) in presence of 25 uM ATP.
Sequence of Interleukin-1 receptor-associated kinase 1 (P51617 whole entry): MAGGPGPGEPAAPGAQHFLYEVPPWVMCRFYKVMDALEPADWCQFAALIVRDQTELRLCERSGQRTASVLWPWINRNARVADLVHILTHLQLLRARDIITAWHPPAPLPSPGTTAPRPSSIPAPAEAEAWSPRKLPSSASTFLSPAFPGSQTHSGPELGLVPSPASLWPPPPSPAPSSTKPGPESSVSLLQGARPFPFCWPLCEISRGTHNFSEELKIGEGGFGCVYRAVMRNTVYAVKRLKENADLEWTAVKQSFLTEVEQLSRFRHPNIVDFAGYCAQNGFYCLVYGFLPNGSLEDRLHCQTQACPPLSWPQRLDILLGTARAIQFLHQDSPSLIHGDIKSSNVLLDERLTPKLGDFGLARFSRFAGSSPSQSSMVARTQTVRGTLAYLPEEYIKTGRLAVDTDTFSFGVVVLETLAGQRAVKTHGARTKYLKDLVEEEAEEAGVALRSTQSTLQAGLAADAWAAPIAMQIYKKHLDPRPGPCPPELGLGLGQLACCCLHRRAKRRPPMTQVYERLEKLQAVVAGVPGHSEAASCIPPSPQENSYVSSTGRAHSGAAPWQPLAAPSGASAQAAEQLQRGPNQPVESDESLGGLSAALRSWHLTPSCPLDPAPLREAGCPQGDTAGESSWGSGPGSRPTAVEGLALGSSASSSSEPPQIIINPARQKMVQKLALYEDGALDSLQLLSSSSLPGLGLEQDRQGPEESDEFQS
The target in data set [5] is High affinity nerve growth factor receptor (Homo sapiens, UniProt P04629). Put plainly: Inhibition of TRKA (unknown origin) in presence of 400 uM ATP.
Sequence of High affinity nerve growth factor receptor (P04629 whole entry): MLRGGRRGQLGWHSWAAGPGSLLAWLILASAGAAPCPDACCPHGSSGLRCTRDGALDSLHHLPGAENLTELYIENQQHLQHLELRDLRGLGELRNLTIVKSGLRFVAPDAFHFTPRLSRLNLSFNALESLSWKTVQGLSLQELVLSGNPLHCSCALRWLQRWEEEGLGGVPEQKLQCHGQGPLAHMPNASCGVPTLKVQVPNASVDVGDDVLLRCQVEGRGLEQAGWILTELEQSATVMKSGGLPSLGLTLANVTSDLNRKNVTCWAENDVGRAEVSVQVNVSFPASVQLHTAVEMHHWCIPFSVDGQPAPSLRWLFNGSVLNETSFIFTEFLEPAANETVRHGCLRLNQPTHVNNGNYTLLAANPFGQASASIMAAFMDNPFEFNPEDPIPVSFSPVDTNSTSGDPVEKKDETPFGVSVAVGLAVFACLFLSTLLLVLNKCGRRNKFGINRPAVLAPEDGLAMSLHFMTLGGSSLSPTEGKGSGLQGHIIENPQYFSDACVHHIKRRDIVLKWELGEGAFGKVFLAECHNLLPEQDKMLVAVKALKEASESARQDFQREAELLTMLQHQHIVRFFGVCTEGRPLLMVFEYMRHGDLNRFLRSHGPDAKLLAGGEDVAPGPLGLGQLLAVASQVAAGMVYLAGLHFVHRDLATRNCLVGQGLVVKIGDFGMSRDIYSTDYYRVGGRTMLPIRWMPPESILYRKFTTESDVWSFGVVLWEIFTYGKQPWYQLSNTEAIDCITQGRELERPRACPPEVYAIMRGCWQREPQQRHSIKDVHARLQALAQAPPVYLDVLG
The nature of data set [6]: Oral bioavailability in CD1 mouse at 1 mg/kg. The data set is classed as ADME, organism-based. Particulars: in vivo.
Data set [7] in a line: Metabolic stability in human hepatocytes assessed as half life. Format: ADME, cell-based, Hepatocyte.
Data set [8] can be described thus: Terminal half life in Han Wistar rat at 1 mg/kg, iv. The data set is classed as ADME, organism-based. Particulars: in vivo, read-out: beta t1/2 (converted).
A short description of data set [9]: Terminal half life in CD1 mouse at 0.5 mg/kg, iv. Format: ADME, organism-based. Particulars: in vivo, read-out: beta t1/2 (converted).
The subject of data set [10] is OCI-Ly10. The experiment in a line: Growth inhibition of human OCILY10 cells at 1.7 uM incubated for 3 days (Rvb= -3%). Format: functional. Particulars: OCI-Ly10, 72 h, time 3 day, read-out: GI.
The nature of data set [11]: Efflux ratio of apparent permeability basolateral to apical side over apical to basolateral side in human Caco-2 cells measured for 360 mins by liquid scintillation counting based analysis. The data set is classed as ADME, cell-based. (In general: Caco-2 monolayers are a common model of the intestinal barrier.)
For data set [12], the target named is T1, Interleukin-1 receptor-associated kinase 4 (Homo sapiens, UniProt Q9NWZ3).
T1 sequence (Q9NWZ3 whole entry): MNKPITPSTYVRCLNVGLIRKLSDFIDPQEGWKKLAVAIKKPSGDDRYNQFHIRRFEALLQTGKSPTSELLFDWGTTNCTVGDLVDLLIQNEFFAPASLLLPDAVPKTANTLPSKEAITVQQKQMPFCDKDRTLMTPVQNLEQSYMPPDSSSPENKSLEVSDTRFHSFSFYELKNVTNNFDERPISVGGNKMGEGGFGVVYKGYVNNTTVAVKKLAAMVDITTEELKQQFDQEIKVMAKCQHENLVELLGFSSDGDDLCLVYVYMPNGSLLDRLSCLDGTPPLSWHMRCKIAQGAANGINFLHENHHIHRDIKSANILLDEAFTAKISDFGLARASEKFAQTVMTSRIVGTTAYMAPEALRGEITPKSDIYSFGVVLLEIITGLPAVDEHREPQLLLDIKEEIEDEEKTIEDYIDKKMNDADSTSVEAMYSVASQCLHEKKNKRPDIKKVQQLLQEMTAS
The experiment in a line: Inhibition of IRAK4 (unknown origin) phosphorylation by cell based assay.

Data set [13] in a line: Metabolic stability in human hepatocytes assessed as intrinsic clearance measured per 10^6 cells. Format: ADME, cell-based, Hepatocyte. Particulars: read-out: CLH.
Data set [14] has as its system SUD4. The experiment in a line: Growth inhibition of human SU-DHL-4 cells at 0.17 uM incubated for 3 days (reference value: -1%). Format: functional. Particulars: SU-DHL-4, 72 h, time 3 day, read-out: GI.
Data set [15] relates to SUD4. The experiment in a line: Growth inhibition of human SU-DHL-4 cells at 1.7 uM incubated for 3 days (reference value: -1%). The data set is classed as functional. Particulars: SU-DHL-4, 72 h, time 3 day, read-out: GI.
Data set [16] in a line: Metabolic stability in rat hepatocytes assessed as intrinsic clearance measured per 10^6 cells. The data set is classed as ADME, cell-based, Hepatocyte. Particulars: read-out: CLH.
Data set [17] is described as follows: Plasma protein binding in human assessed as free fraction by equilibrium dialysis analysis. The data set is classed as ADME, cell-free. A general note: In equilibrium dialysis free small molecules cross a membrane that holds back macromolecules.
Data set [18] relates to OCI-Ly10. Put plainly: Growth inhibition of human OCILY10 cells at 10 uM incubated for 3 days (Rvb= -3%). Format: functional. Particulars: OCI-Ly10, 72 h, time 3 day, read-out: GI.
Data set [19] in a line: Metabolic stability in mouse liver microsomes assessed as intrinsic clearance. Format: ADME, Microsome. Particulars: read-out: CLH. (Liver microsomes are vesicles of endoplasmic reticulum, rich in cytochrome P450 enzymes.)
The subject of data set [20] is SUD4. The experiment in a line: Growth inhibition of human SU-DHL-4 cells at 3.3 uM incubated for 3 days (reference value: -1%). The data set is classed as functional. Particulars: SU-DHL-4, 72 h, time 3 day, read-out: GI.
Data set [21] addresses Tyrosine-protein kinase BTK (Homo sapiens, UniProt Q06187). Put plainly: Inhibition of BTK (unknown origin) in presence of 25 uM ATP.
Data set [22] addresses T2, Receptor-type tyrosine-protein kinase FLT3 (Homo sapiens, UniProt P36888).
T2 sequence (P36888 whole entry): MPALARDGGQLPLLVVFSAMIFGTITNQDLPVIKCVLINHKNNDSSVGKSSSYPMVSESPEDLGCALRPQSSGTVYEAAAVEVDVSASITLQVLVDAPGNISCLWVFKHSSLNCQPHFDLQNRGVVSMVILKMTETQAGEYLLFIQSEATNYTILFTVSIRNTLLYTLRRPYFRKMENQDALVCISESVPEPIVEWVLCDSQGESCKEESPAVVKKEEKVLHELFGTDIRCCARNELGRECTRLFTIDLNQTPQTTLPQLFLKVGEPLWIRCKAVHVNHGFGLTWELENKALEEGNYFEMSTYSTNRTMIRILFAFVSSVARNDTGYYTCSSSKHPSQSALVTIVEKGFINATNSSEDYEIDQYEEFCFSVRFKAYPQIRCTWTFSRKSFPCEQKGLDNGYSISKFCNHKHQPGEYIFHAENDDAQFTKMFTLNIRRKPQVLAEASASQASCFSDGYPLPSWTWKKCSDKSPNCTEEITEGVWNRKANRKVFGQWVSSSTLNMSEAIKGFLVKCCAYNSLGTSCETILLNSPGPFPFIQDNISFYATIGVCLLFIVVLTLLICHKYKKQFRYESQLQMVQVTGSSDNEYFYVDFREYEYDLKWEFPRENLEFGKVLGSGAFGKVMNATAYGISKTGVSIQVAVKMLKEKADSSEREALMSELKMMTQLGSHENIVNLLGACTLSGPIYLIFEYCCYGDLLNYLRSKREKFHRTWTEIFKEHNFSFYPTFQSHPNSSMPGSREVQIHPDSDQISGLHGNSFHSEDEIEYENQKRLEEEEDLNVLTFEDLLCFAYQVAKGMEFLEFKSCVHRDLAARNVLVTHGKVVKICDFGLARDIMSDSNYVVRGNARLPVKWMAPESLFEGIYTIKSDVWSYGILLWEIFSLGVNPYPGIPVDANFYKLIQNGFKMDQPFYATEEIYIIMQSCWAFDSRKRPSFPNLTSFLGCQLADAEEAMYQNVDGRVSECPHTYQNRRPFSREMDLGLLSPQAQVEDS
The experiment in a line: Inhibition of FLT3 (unknown origin) in presence of 600 uM ATP.

Data set [23] in a line: Metabolic stability in human liver microsomes assessed as half life. Format: ADME, Microsome.
The nature of data set [24]: Metabolic stability in rat liver microsomes assessed as intrinsic clearance. Particulars: read-out: CLH. Format: ADME, Microsome.
Data set [25] deals with SUD4. The experiment in a line: Growth inhibition of human SU-DHL-4 cells at 0.17 uM incubated for 3 days (reference value: 2%). Format: functional. Particulars: SU-DHL-4, 72 h, time 3 day, read-out: GI.
Data set [26] relates to SUD4. The experiment in a line: Growth inhibition of human SU-DHL-4 cells at 10 uM incubated for 3 days (reference value: 2%). Particulars: SU-DHL-4, 72 h, time 3 day, read-out: GI. The data set is classed as functional.

Sequence of Tyrosine-protein kinase BTK (Q06187 whole entry): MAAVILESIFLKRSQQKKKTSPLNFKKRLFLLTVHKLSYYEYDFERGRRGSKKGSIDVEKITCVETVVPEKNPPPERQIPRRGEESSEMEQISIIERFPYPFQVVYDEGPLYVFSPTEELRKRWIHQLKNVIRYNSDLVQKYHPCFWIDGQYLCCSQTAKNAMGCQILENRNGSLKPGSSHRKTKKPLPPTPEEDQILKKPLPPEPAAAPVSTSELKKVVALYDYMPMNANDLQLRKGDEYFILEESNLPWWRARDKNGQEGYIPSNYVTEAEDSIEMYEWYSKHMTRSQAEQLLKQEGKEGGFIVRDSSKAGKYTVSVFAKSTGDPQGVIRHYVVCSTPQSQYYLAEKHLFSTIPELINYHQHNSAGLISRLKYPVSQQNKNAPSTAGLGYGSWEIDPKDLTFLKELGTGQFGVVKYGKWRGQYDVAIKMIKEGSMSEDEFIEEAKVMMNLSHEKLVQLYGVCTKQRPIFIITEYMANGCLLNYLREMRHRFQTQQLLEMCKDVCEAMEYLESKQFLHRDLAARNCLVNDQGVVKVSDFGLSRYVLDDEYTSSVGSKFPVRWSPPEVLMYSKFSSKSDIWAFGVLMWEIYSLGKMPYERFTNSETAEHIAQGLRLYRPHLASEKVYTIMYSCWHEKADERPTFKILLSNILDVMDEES

In the case of `Cc1ncc(-c2nc3c(OC4(C)CC4)nc(Nc4cnn(C5CCN(C)CC5)c4)nc3cc2F)cn1`, the IC50 in [1] was 760 nM; in data set [4], 1400 nM; in [5] it was 270 nM; in data set [12], 110 nM; in data set [21], over 8000 nM; in data set [22], over 9000 nM. Moreover, the inhibition of growth at 3.3 µM in [2] is 76%; in [20] it was -2%. This molecule also came in with a logD in data set [3] of 2.6. The molecule further returned a bioavailability in data set [6] of 66%. In addition, the half-life in data set [7] is 30 h; in [8], 5.2 h; in [9] it was 4.2 h; in [23], 3 h. Also, the inhibition of growth at 1.7 µM in [10] is 44%; in data set [15], -2%. The efflux ratio at 6 h in data set [11] worked out at 1.4. For the same molecule, the hepatocyte CLint is under 1 µL/min/1e6 cells in data set [13] and 5.6 µL/min/1e6 cells in data set [16]. Moreover, the inhibition of growth at 0.17 µM in data set [14] is -2%. For the same molecule, the fraction unbound in data set [17] stood at 0.21. Further, the inhibition of growth at 10 µM in data set [18] was determined as 148%. Moreover, the figures for the microsomal CLint in data set [19] and in data set [24] were 13 µL/min/mg and 16 µL/min/mg, respectively.
Regarding `CC[C@@H]1[C@H](F)C(=O)N[C@@H]1COc1nccc2cc(C(N)=O)c(OC)cc12` [ZIMLOVISERTIB], in [14], the inhibition of growth at 0.17 µM stood at 1%. For the same molecule, the inhibition of growth at 1.7 µM in data set [15] came to 1%. The inhibition of growth at 3.3 µM in data set [20] stood at 1%.
For `Cc1ncc(-c2nc3c(NC(C)C)nc(Nc4cnn(C5CC6(C5)CN(C)C6)c4)nc3cc2F)cn1`, the IC50 in data set [1] was 930 nM; in data set [4] it was 1200 nM; in [5] it was 480 nM; in data set [12], 210 nM; in [21] it was over 10000 nM; in data set [22] it was 1500 nM. Also, the inhibition of growth at 3.3 µM in data set [2] turned out to be 105%. This molecule yielded a logD in data set [3] of 1.9. In addition, in [25], the inhibition of growth at 0.17 µM is 2%. Also, the inhibition of growth at 1.7 µM in [10] is 75%. Further, the efflux ratio at 6 h in data set [11] came to 4.2. The hepatocyte CLint in data set [13] was under 1 µL/min/1e6 cells. In addition, the inhibition of growth at 10 µM in data set [18] is 157%; in data set [26] it was 6%.

The values are drawn from ChEMBL document CHEMBL5244269, “Improving metabolic stability and removing aldehyde oxidase liability in a 5-azaquinazoline series of IRAK4 inhibitors” (Bioorg Med Chem, 2020).
